Test results: ChEMBL document CHEMBL5625172, “Synthesis and evaluation of dihydrofuro[2,3-b]pyridine derivatives as potent IRAK4 inhibitors” (Eur J Med Chem, 2023)
pIC50, pKd: −log10 of the molar value. Blank lines part the entries; values can stand above or below the compound they belong to. Active and inactive are the calls of the source. The rule behind the calls is not given here.

How the values were obtained:
[1] = Clearance in Sprague-Dawley rat at 2 mg/kg, iv measured after 5 mins to 24 hrs by LC-MS analysis; format: ADME, organism-based; conditions: in vivo, time 5-1440 min
[2] = Oral bioavailability in Sprague-Dawley rat at 5 to 10 mg/kg measured after 0.25 to 24 hrs by LC-MS analysis; format: ADME, organism-based; conditions: in vivo, dose lower 5 mg/kg, time lower 0.25 hrs, dose upper 10 mg/kg, time upper 24 hrs
[3] = target: T1, Interleukin-1 receptor-associated kinase 4 (Homo sapiens, UniProt Q9NWZ3); assay: Inhibition of IRAK4 (unknown origin) using FAM-labeled peptide as substrate incubated for 10 mins in presence of ATP by mobility shift assay
T1 sequence (Q9NWZ3 whole entry): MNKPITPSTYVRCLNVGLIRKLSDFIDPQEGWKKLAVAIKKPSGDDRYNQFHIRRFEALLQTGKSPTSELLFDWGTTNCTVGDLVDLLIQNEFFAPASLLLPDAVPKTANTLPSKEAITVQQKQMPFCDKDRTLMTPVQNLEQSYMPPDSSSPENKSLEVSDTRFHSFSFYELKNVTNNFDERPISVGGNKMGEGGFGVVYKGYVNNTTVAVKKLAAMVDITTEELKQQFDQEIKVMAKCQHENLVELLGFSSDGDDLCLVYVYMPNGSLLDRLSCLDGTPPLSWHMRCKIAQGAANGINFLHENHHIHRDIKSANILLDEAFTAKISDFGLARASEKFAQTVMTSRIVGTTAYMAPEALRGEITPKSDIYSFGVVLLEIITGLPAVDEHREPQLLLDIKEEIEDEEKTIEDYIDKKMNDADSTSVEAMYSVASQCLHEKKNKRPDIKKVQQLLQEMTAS

[4] = target: Receptor-interacting serine/threonine-protein kinase 2 (Homo sapiens, UniProt O43353); assay: Inhibition of RIPK2 (unknown origin) by scintillation proximity assay
[5] = target: cAMP-dependent protein kinase catalytic subunit beta (Homo sapiens, UniProt P22694); assay: Inhibition of PKA-C beta (unknown origin) by scintillation proximity assay
[6] = Inhibition of LPS-induced IL-6 mRNA expression in immortalized mouse BMDM cells preincubated for 2 hrs followed by LPS stimulation and measured after 16 hrs by qPCR analysis; format: functional, cell-based
[7] = target: Receptor-type tyrosine-protein kinase FLT3 (Homo sapiens, UniProt P36888); assay: Inhibition of FLT3 (unknown origin) by scintillation proximity assay
[8] = target: Interleukin-1 receptor-associated kinase 1 (Homo sapiens, UniProt P51617); assay: Binding affinity to IRAK1 (unknown origin) by kinomescan competition binding assay
[9] = Inhibition of LPS-induced IL-6 mRNA expression in human PBMC cells preincubated for 2 hrs followed by LPS stimulation and measured after 16 hrs by qPCR analysis; format: functional, cell-based
[10] = Inhibition of LPS-induced TNFalpha protein expression in human PBMC cells preincubated for 2 hrs followed by LPS stimulation and measured after 16 hrs by ELISA; format: functional, cell-based
[11] = Inhibition of CDK2/cyclinA (unknown origin) by scintillation proximity assay; set-up: species or system Homo sapiens
Mus musculus = assay: In vivo inhibition of LPS-induced TNF-alpha protein level in C57BL/6 mouse assessed as reduction in TNF-alpha level in serum at 50 to 100 mg/kg, po administered for 1 hr followed by LPS stimulation and measured after 3 hrs by ELISA; format: functional, organism-based; conditions: dose 50-100 mg/kg, time 4.0 hrs
[12] = target: Dual specificity protein kinase CLK1 (Homo sapiens, UniProt P49759); assay: Inhibition of CLK1 (unknown origin) by scintillation proximity assay
[13] = target: Serine/threonine-protein kinase B-raf (Homo sapiens, UniProt P15056); assay: Inhibition of B-Raf (unknown origin) by scintillation proximity assay
[14] = target: Tyrosine-protein kinase JAK1 (Homo sapiens, UniProt P23458); assay: Inhibition of JAK1 (unknown origin) by scintillation proximity assay
[15] = target: Epidermal growth factor receptor (Homo sapiens, UniProt P00533); assay: Inhibition of EGFR (unknown origin) by scintillation proximity assay
[16] = target: MAP kinase-activated protein kinase 2 (Homo sapiens, UniProt P49137); assay: Inhibition of MAPKAP-K2 (unknown origin) by scintillation proximity assay
CDK4/Cyclin D3 = CDK4/Cyclin D3 (Homo sapiens, UniProt P11802); assay: Inhibition of CDK4/cyclinD3 (unknown origin) by scintillation proximity assay; format: protein-complex assay
BMDM = assay: Cytotoxicity against immortalized mouse BMDM cells at 3 uM; format: toxicity, cell-based
[17] = target: Serine/threonine-protein kinase 38 (Homo sapiens, UniProt Q15208); assay: Inhibition of NDR1 (unknown origin) by scintillation proximity assay
[18] = target: Tyrosine-protein kinase BTK (Homo sapiens, UniProt Q06187); assay: Inhibition of BTK (unknown origin) by scintillation proximity assay
[19] = target: Homeodomain-interacting protein kinase 1 (Homo sapiens, UniProt Q86Z02); assay: Inhibition of HIPK1 (unknown origin) by scintillation proximity assay
[20] = target: Serine/threonine-protein kinase MRCK alpha (Homo sapiens, UniProt Q5VT25); assay: Inhibition of MRCKa (unknown origin) by scintillation proximity assay
[21] = Plasma protein binding in Sprague-Dawley rat by LC-MS analysis; format: ADME, cell-free; conditions: read-out: PPB (converted)
[22] = Plasma protein binding in CD-1 mouse by LC-MS analysis; format: ADME, cell-free; conditions: read-out: PPB (converted)
[23] = Inhibition of LPS-induced TNFalpha mRNA expression in immortalized mouse BMDM cells preincubated for 2 hrs followed by LPS stimulation and measured after 16 hrs by qPCR analysis; format: functional, cell-based
[24] = Plasma protein binding in human by LC-MS analysis; format: ADME, cell-free; conditions: read-out: PPB
[25] = target: Serine/threonine-protein kinase 17A (Homo sapiens, UniProt Q9UEE5); assay: Inhibition of DRAK1 (unknown origin) by scintillation proximity assay
[26] = Inhibition of LPS-induced IL-6 protein expression in immortalized mouse BMDM cells preincubated for 2 hrs followed by LPS stimulation and measured after 16 hrs by ELISA; format: functional, cell-based
[27] = target: Mitogen-activated protein kinase kinase kinase 5 (Homo sapiens, UniProt Q99683); assay: Inhibition of ASK1 (unknown origin) by scintillation proximity assay
[28] = Clearance in Sprague-Dawley rat assessed as liver blood flow at 2 mg/kg, iv measured after 5 mins to 24 hrs by LC-MS analysis; format: ADME, organism-based; conditions: in vivo, time 5-1440 min
[29] = Cytotoxicity against Splenocytes (unknown origin) at 3 uM; format: toxicity, cell-based; conditions: splenocyte
MEF = assay: Cytotoxicity against MEF cells at 3 uM; format: toxicity, cell-based; conditions: mouse
[30] = target: Serine/threonine-protein kinase PAK 1 (Homo sapiens, UniProt Q13153); assay: Inhibition of PAK1 (unknown origin) by scintillation proximity assay
[31] = Inhibition of LPS-induced TNFalpha protein expression in immortalized mouse BMDM cells preincubated for 2 hrs followed by LPS stimulation and measured after 16 hrs by ELISA; format: functional, cell-based
[32] = target: Receptor-interacting serine/threonine-protein kinase 1 (Homo sapiens, UniProt Q13546); assay: Inhibition of RIPK1 (unknown origin) by scintillation proximity assay
[33] = target: Calcium/calmodulin-dependent protein kinase type 1 (Homo sapiens, UniProt Q14012); assay: Inhibition of CaMKI (unknown origin) by scintillation proximity assay
[34] = target: Dual specificity tyrosine-phosphorylation-regulated kinase 1A (Homo sapiens, UniProt Q13627); assay: Inhibition of DYRK1A (unknown origin) by scintillation proximity assay

Sequence of CDK4/Cyclin D3 (P11802 whole entry): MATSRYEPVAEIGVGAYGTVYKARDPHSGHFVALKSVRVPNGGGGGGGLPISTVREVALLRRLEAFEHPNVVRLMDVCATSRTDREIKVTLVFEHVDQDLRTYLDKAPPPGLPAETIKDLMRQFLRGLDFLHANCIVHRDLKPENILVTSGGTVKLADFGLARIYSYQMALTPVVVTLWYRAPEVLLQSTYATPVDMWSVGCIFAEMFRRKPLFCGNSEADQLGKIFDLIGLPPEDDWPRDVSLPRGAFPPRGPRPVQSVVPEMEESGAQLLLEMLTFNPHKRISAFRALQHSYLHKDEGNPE
Sequence of CDK4/Cyclin D3 (P30281 whole entry, further chain): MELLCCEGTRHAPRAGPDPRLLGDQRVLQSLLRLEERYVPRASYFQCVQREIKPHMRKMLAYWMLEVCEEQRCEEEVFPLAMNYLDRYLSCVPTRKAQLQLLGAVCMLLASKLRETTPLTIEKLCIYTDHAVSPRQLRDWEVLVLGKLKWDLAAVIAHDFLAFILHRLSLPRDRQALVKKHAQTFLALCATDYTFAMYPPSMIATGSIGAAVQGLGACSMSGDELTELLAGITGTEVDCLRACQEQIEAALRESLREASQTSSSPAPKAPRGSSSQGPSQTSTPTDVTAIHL
Sequence of Tyrosine-protein kinase BTK (Q06187 whole entry): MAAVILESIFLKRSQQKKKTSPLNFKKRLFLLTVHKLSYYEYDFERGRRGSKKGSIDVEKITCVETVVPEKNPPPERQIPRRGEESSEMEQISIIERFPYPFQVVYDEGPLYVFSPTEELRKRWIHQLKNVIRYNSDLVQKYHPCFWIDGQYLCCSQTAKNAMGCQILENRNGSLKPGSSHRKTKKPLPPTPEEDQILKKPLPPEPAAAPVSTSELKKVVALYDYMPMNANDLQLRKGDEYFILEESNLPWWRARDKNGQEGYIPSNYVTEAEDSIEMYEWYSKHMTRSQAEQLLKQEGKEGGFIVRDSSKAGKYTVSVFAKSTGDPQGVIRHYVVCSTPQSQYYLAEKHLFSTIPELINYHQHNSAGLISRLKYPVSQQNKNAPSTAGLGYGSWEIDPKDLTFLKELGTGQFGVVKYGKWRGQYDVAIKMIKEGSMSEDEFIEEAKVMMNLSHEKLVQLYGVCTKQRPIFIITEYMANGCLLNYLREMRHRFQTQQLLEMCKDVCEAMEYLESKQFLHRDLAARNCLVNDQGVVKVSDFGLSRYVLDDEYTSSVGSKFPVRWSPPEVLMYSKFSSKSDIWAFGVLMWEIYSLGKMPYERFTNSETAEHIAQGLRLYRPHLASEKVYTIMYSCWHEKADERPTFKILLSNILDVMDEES
Sequence of Epidermal growth factor receptor (P00533 whole entry): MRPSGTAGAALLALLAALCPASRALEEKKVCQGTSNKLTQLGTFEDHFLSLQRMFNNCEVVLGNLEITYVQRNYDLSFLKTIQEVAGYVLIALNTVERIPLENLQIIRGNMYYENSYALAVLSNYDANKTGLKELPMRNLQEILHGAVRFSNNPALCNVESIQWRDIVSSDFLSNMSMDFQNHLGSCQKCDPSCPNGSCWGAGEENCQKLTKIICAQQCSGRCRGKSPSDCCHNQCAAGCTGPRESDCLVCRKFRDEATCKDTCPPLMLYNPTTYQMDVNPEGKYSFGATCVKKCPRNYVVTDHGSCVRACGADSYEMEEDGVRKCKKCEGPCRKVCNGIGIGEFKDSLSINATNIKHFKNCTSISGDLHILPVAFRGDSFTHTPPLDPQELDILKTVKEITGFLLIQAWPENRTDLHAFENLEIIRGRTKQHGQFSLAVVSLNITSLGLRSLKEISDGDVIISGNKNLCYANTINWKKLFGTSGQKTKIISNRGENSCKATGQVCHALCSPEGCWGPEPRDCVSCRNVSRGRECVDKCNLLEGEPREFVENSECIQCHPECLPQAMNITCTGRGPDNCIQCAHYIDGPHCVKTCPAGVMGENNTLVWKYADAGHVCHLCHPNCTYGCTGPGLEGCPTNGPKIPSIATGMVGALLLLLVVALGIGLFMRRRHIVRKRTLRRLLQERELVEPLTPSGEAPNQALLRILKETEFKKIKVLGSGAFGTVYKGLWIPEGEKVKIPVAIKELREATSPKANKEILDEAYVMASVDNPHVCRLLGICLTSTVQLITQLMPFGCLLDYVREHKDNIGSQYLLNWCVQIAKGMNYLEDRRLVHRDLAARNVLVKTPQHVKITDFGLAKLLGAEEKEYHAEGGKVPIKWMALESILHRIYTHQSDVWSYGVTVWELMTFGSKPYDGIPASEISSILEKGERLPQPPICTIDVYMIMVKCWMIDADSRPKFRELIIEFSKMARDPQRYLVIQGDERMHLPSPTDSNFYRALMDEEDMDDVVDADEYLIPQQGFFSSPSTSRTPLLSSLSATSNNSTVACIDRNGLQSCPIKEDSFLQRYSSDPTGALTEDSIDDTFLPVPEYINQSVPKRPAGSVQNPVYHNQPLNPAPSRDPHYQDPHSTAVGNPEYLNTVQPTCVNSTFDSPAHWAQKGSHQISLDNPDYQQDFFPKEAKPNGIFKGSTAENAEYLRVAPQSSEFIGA
Sequence of Receptor-interacting serine/threonine-protein kinase 1 (Q13546 whole entry): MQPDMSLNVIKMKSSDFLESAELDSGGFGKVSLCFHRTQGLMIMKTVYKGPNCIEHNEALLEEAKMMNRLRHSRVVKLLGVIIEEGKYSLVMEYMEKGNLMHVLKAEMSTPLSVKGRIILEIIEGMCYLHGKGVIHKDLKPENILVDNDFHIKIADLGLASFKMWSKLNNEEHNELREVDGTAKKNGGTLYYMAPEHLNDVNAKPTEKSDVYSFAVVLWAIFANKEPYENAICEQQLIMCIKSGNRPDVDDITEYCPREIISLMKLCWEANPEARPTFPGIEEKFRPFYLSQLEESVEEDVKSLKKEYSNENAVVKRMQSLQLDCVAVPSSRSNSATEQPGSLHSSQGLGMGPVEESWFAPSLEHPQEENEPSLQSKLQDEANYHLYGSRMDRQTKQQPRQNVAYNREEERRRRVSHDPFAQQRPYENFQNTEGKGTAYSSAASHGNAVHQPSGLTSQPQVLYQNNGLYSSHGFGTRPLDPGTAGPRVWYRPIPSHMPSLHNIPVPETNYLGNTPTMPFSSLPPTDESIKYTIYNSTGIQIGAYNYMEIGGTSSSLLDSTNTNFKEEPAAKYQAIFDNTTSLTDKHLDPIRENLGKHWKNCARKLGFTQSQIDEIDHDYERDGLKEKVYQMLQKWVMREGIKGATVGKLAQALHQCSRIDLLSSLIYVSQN
Sequence of MAP kinase-activated protein kinase 2 (P49137 whole entry): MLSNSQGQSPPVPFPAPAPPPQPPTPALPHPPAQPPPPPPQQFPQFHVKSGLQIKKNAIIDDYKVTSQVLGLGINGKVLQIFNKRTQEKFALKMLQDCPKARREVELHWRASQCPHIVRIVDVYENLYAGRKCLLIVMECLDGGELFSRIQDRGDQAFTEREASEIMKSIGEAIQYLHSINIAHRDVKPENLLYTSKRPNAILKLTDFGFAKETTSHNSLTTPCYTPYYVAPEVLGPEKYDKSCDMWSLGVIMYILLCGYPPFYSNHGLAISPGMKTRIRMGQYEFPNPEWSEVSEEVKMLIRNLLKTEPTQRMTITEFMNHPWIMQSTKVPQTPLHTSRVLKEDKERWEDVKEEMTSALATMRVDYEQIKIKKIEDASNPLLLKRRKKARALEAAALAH
Sequence of Calcium/calmodulin-dependent protein kinase type 1 (Q14012 whole entry): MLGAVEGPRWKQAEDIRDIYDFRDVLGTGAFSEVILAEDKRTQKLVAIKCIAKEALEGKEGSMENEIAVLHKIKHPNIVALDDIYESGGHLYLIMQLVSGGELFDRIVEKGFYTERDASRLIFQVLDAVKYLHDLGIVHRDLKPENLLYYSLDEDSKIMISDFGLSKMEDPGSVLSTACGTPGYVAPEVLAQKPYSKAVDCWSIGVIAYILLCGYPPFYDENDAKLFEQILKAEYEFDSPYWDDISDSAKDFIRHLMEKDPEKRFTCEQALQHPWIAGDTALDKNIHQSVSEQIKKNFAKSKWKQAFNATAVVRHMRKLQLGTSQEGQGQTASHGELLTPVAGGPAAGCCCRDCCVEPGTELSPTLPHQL
Sequence of Receptor-type tyrosine-protein kinase FLT3 (P36888 whole entry): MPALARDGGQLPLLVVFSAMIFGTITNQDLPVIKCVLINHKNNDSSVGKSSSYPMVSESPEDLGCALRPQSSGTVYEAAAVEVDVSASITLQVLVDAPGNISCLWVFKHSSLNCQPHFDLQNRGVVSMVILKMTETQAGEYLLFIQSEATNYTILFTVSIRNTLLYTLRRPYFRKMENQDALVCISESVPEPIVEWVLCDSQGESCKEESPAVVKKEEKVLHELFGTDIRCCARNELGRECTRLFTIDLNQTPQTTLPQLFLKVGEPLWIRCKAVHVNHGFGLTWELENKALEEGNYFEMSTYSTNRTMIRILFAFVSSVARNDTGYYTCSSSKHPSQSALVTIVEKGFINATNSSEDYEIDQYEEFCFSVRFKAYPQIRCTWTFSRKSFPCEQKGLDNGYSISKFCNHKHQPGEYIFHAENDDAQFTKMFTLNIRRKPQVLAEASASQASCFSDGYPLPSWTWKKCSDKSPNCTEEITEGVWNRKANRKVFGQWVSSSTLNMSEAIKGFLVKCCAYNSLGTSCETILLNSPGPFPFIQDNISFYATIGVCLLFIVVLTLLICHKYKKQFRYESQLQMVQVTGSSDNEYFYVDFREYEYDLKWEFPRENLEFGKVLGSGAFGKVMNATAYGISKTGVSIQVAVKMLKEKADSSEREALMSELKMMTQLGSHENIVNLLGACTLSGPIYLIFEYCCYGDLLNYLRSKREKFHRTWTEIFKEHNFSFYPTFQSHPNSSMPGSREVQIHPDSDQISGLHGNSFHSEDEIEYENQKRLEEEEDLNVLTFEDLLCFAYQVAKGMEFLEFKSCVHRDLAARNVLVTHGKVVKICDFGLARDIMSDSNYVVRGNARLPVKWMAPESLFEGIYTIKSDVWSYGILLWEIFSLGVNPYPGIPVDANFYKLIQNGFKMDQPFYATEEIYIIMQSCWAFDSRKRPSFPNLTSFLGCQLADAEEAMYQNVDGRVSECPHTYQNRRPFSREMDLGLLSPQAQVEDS

SMILES: CCOc1nc2c(cc1C(=O)Nc1cccc(C(F)(F)F)n1)CC(C)(C)O2
pIC50 [3]: 6.71

SMILES: Cn1cc(-c2cccc(NC(=O)c3cc4c(nc3OC3CCC3)OC(C)(C)C4)n2)cn1
clearance [1]: 41 mL/min/kg
pIC50 [3]: 8.22
bioavailability [2]: 3.1%

SMILES: Cn1cc(-c2cccc(NC(=O)c3cc4c(nc3OC3COC3)OC(C)(C)C4)n2)cn1
clearance [1]: 58 mL/min/kg
bioavailability [2]: 1.5%

SMILES: CCOc1nc2c(cc1C(=O)Nc1cccc(-c3ccn(C)n3)n1)CC(C)(C)O2
pIC50 [3]: 5.86

SMILES: COc1nc2c(cc1C(=O)Nc1cccc(-c3cnn(C)c3)n1)CC(C)(C)O2
pIC50 [3]: 7.29

SMILES: CCOc1nc2c(cc1C(=O)Nc1cccc(C)n1)CC(C)(C)O2
pIC50 [3]: 6.95

SMILES: CNCCOc1nc2c(cc1C(=O)Nc1cccc(-c3cnn(C)c3)n1)CC(C)(C)O2
pIC50 [3]: 6.95

SMILES: Cn1cc(-c2cccc(NC(=O)c3cc4c(nc3O[C@H]3C[C@@H](O)C3)OC(C)(C)C4)n2)cn1
pIC50 [4]: 5.08
pIC50 [5]: < 4.52
pIC50 [6]: 6.67
pIC50 [7]: 7.96
pKd [8]: 7.89
pIC50 [9]: 6.25
pIC50 [10]: 7.27
pIC50 [11]: 5.52
inhibition (Mus musculus): Active
pIC50 [12]: 8.05
pIC50 [13]: 4.59
clearance [1]: 12 mL/min/kg
pIC50 [14]: < 4.52
pIC50 [15]: < 4.52
pIC50 [16]: < 4.52
pIC50 (CDK4/Cyclin D3): < 4.52
Activity (BMDM): Toxic
pIC50 [17]: 4.78
pIC50 [18]: < 4.52
pIC50 [19]: 4.58
pIC50 [20]: < 4.52
fraction unbound [21]: 0.03
fraction unbound [22]: 0.02
pIC50 [23]: 5.92
fraction unbound [24]: 0.01
pIC50 [25]: 6.10
pIC50 [26]: 6.88
pIC50 [27]: < 4.52
LBF [28]: < 30%
Activity [29]: Toxic
Activity (MEF): Toxic
pIC50 [30]: < 4.52
bioavailability [2]: 21%
pIC50 [31]: 6.31
pIC50 [32]: 5.33
pIC50 [33]: < 4.52
pIC50 [34]: 7.47

SMILES: Cn1cc(-c2cccc(NC(=O)c3cc4c(nc3OC3CCNC3)OC(C)(C)C4)n2)cn1 (stereo unspecified)
pIC50 [3]: 6.42

More lines, now with the values ahead:

clearance [1]: 18 mL/min/kg
bioavailability [2]: 11%
SMILES: Cn1cc(-c2cccc(NC(=O)c3cc4c(nc3O[C@H]3C[C@H](O)C3)OC(C)(C)C4)n2)cn1

clearance [1]: 43 mL/min/kg
bioavailability [2]: 3.6%
SMILES: CCOc1nc2c(cc1C(=O)Nc1cccc(-c3cnn(C)c3)n1)CC(C)(C)O2

pIC50 [3]: 7.12
SMILES: CCOc1nc2c(cc1C(=O)Nc1cccc(-c3ccnn3C)n1)CC(C)(C)O2

pIC50 [3]: < 5.22
SMILES: CCOc1nc2c(cc1C(=O)Nc1cnn(C)c1)CC(C)(C)O2

clearance [1]: 44 mL/min/kg
pIC50 [3]: 8.24
bioavailability [2]: 7.5%
SMILES: CC(C)Oc1nc2c(cc1C(=O)Nc1cccc(-c3cnn(C)c3)n1)CC(C)(C)O2

pIC50 [3]: 7.13
SMILES: CN1CCC(Oc2nc3c(cc2C(=O)Nc2cccc(-c4cnn(C)c4)n2)CC(C)(C)O3)C1 (stereo unspecified)

pIC50 [3]: 8.24
SMILES: Cn1cc(-c2cccc(NC(=O)c3cc4c(nc3OC3CCCC3)OC(C)(C)C4)n2)cn1

pIC50 [3]: 7.02
SMILES: CCOc1nc2c(cc1C(=O)Nc1cnn3cccnc13)CC(C)(C)O2

clearance [1]: 43 mL/min/kg
bioavailability [2]: 1.6%
SMILES: Cn1cc(-c2cccc(NC(=O)c3cc4c(nc3OC3CC3)OC(C)(C)C4)n2)cn1

pIC50 [3]: 7.06
SMILES: CCOc1nc2c(cc1C(=O)Nc1cccc(OC)n1)CC(C)(C)O2

clearance [1]: 31 mL/min/kg
bioavailability [2]: 6.2%
SMILES: Cn1cc(-c2cccc(NC(=O)c3cc4c(nc3O[C@@H]3CCOC3)OC(C)(C)C4)n2)cn1

pIC50 [3]: 7.32
SMILES: CCOc1nc2c(cc1C(=O)Nc1cccc(C(F)F)n1)CC(C)(C)O2
